Experimental data as given in US20220096503A1, “COMBINATION PHARMACEUTICAL COMPOSITIONS AND METHODS THEREOF” (University of Washington, priority 2019, published 2022).
Read-outs that look alike come from different tables or passages of the source.

Assays:
[1] = Non-human Primates, SC; cited from earlier work
[2] = Human, IV; cited from earlier work
[3] = Conventional dosage form LPV/RTV, oral administration, non-human primates (Example 4); format: in vivo; conditions: non-human primates vs humans
Source text: AUC (area under the curve, or total drug exposure) of the active drug lopinavir was dose normalized across species and route of administration by dividing the total exposure by the dose administered (μg*hr*kg/(mL*mg)). Dashes represent unreported data. Apparent half-life is reported in hours.

C[C@H](Cn1cnc2c(N)ncnc21)OCP(=O)(O)O [TFV, tenofovir]
AUC (dose normalized) [1]: 2.1 µg·kg·h/mL/mg | T1/2, app [1]: 8 h | AUC (dose normalized) [2]: 5.6 µg·kg·h/mL/mg | T1/2, app [2]: 6.6 h

Cc1cccc(C)c1OCC(=O)N[C@@H](Cc1ccccc1)[C@@H](O)C[C@H](Cc1ccccc1)NC(=O)[C@H](C(C)C)N1CCCNC1=O [lopinavir]
total AUC of lopinavir (PO) in non-human primates, fold lower than humans [3]: 10 fold
